What was measured:
Format in all cases: biochemical
[1] = target: T1, Amyloglucosidase (Aspergillus niger, UniProt P69328); assay: Glycosidase inhibition: amyloglucosidase (Aspergillus niger); settings: amyloglucosidase, Aspergillus niger; 1000 μM
T1 construct: purchased Sigma-Aldrich Co
Text: (§1) The enzymes α-glucosidase (from yeast, rice), β-glucosidase (from almonds, bovine liver), α-galactosidase (from coffee beans), β-galactosidase (from bovine liver), α-mannosidase (from jack beans), β-mannosidase (from snails), α-L-fucosidase (from bovine kidney), α-L-rhamnosidase (from Penicillium decumbens), β-glucuronidases (from Escherichia coli), α,α-trehalase (from porcine kidney), amyloglucosidase (from Aspergillus niger), p-nitrophenyl glycosides, and various disaccharides were purchased from Sigma-Aldrich Co. Brush border membranes were prepared from the rat small intestine according to the method of Kessler et al., and were assayed at pH 6.8 for rat intestinal maltase using maltose. For rat intestinal glucosidases and porcine kidney trehalase activities, the reaction mixture (0.2 mL) contained 25 mM substrate and the appropriate amount of enzyme, and the incubations were performed for 10 min at 37 °C. The reaction was stopped by heating at 100 °C for 3 min. After centrifugation (600 g; 10 min), 0.035 mL of the resulting reaction mixture were added to 2.1 mL of the Glucose CII-test Wako (Wako Pure Chemical Ind., Osaka, Japan). The absorbance at 505 nm was measured to determine the amount of the released D-glucose. Other glycosidase activities were determined using an appropriate p-nitrophenyl glycoside as substrate at the optimum pH of each enzyme. The reaction mixture (0.2 mL) contained 2 mM of the substrate and the appropriate amount of enzyme. The reaction was stopped by adding 0.4 mL of 400 mM Na2CO3. The released p-nitrophenol was measured spectrometrically at 400 nm.

[2] = target: T2, β-Glucronidase (E.coli) (Escherichia coli, UniProt P05804); assay: Glycosidase inhibition: β-glucuronidase (E. coli); settings: β-glucuronidase, E. coli; 1000 μM
T2 construct: purchased Sigma-Aldrich Co
Text: as §1

[3] = target: T3, β-Galactosidase (bovine liver) (Bos taurus, UniProt Q58D55); assay: Glycosidase inhibition: β-galactosidase (bovine liver)
T3 sequence (Q58D55 28-653): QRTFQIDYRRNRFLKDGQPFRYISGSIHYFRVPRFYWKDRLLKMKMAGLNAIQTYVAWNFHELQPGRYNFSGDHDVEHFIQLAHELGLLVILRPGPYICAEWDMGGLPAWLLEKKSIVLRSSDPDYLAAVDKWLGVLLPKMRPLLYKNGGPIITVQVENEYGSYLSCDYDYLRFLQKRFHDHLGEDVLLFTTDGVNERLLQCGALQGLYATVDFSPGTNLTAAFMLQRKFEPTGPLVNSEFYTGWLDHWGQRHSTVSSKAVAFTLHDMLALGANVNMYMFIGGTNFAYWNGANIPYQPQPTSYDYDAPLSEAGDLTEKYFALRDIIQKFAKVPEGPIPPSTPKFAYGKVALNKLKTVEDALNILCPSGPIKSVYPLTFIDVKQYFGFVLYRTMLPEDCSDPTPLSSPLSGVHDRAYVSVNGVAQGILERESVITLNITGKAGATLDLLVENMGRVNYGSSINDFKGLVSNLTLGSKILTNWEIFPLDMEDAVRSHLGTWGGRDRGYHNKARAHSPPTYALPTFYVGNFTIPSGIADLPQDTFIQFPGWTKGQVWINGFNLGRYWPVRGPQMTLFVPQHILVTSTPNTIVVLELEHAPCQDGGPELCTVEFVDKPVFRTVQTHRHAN
Text: as §1, with “After centrifugation (600 g; 10 min), 0.035 mL of the resulting reaction mixture were added to 2.1 mL of the Glucose CII-test Wako (Wako Pure Chemical Ind., Osaka, Japan).” left out, “The reaction mixture (0.2 mL) contained 2 mM of the substrate and the appropriate amount of enzyme. The reaction was stopped by adding 0.4 mL of 400 mM Na2CO3.” left out

[4] = target: T4, α-Glucosidase (rice) (Oryza sativa subsp. japonica, UniProt Q653V7); assay: Glycosidase inhibition: α-glucosidase (rice); settings: read-out: inhibition % at 1000 μM
T4 construct: purchased Sigma-Aldrich Co
Text: as §1

[5] = target: T5, α-Galactosidase (coffee beans) (Coffea arabica, UniProt Q42656); assay: Glycosidase inhibition: α-galactosidase (coffee beans); settings: read-out: inhibition % at 1000 μM
T5 construct: purchased Sigma-Aldrich Co
Text: as §1

T2 sequence (P05804 whole entry): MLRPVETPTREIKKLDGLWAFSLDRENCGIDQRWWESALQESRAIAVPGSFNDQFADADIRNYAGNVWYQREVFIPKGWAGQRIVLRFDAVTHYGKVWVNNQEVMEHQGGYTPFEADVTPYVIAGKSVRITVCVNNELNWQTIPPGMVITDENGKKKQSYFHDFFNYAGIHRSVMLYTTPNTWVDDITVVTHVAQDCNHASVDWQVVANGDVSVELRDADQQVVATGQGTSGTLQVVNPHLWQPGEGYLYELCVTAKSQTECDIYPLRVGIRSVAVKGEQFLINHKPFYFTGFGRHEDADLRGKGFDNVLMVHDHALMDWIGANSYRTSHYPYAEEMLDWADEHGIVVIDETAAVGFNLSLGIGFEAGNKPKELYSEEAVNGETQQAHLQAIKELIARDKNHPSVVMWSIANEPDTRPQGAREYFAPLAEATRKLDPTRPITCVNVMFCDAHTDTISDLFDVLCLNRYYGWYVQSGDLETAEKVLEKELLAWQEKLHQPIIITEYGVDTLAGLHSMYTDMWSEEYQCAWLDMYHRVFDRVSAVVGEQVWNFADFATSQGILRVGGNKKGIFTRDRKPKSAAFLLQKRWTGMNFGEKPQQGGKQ
T4 sequence (Q653V7 34-885): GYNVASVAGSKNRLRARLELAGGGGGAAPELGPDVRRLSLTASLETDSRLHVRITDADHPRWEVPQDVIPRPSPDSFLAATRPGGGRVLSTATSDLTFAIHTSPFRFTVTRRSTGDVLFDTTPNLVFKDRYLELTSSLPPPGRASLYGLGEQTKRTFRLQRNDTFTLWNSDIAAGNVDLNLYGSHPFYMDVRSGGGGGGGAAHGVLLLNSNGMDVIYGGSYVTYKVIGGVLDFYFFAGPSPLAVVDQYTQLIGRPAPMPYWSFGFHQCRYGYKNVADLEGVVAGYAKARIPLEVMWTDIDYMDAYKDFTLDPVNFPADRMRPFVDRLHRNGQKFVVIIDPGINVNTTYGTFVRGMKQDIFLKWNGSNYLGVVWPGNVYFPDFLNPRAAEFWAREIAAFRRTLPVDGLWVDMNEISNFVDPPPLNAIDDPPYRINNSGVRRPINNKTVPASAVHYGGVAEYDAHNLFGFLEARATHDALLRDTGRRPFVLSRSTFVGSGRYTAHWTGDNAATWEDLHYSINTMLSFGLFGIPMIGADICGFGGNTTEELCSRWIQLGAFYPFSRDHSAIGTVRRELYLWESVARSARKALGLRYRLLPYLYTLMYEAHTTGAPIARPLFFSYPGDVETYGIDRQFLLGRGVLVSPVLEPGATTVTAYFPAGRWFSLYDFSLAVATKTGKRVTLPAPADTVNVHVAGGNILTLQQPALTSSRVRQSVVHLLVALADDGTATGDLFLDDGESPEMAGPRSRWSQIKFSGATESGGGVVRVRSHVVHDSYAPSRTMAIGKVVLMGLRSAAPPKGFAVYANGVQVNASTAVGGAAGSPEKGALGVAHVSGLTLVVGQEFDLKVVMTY
T1 sequence (P69328 25-640): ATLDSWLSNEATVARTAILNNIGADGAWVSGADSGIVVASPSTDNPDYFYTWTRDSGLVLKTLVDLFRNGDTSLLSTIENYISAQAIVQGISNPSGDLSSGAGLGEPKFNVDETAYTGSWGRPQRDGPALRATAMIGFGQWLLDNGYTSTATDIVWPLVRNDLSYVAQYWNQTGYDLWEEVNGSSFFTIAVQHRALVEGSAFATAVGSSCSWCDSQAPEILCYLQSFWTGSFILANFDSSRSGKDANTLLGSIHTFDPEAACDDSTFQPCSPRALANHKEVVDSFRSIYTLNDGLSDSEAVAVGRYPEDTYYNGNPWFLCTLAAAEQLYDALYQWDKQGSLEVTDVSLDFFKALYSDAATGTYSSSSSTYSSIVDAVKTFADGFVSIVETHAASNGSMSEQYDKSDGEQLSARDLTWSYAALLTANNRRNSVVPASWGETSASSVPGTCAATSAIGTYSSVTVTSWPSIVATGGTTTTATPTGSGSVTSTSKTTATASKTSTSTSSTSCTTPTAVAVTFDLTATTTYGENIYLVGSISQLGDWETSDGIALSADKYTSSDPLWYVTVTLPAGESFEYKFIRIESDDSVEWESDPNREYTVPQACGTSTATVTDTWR
T5 sequence (Q42656 16-378): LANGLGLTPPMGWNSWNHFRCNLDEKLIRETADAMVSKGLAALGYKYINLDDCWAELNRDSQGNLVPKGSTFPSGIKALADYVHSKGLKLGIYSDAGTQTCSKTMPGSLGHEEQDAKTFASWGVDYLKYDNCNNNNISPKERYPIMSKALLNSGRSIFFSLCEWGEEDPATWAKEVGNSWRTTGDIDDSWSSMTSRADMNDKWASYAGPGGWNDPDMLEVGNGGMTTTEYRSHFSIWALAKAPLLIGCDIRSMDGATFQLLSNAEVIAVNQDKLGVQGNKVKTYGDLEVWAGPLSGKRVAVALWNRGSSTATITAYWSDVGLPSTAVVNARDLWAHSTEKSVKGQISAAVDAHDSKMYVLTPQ

## CC[C@@H]1CN[C@H]2C[C@@H](O)[C@H](O)[C@@H](O)[C@H]12 [Compound 10, (3S,3aR,4S,5S,6R,7aS)-3-Ethyloctahydro-1H-indole-4,5,6-triol]
[1]
  inhibition at 1000 µM: 0%
[2]
  inhibition at 1000 µM: 18.1%
[3]
  inhibition at 1000 µM: < 50%
[4]
  inhibition at 1000 µM: 0%
[5]
  inhibition at 1000 µM: 15.9%

## CC[C@H]1CN[C@H]2C[C@@H](O)[C@H](O)[C@@H](O)[C@H]12 [Compound 13, (3R,3aR,4S,5S,6R,7aS)-3-ethyloctahydro-1H-indole-4,5,6-triol]
[1]
  inhibition at 1000 µM: 0%
[2]
  inhibition at 1000 µM: 12.3%
[3]
  inhibition at 1000 µM: < 50%
[4]
  inhibition at 1000 µM: 0%
[5]
  inhibition at 1000 µM: 0%

Reference: paper PMC6631223, “Chain-Branched Polyhydroxylated Octahydro-1H-Indoles as Potential Leads against Lysosomal Storage Diseases” (Pharmaceuticals, 2019)
